Test results as given in publication PMC7542364 (mBio, 2020).

Key:
[1] = molecular target: HemATN (HemAT sensing domain, residues 1 to 178) (Bacillus subtilis, UniProt O07621); conditions: 50 uM protein, 3 mM ethanol, modified PBS pH 8.0, 10% D2O, 298 K; heme not involved (UV spectra)
[2] = molecular target: McpBC (McpB cytoplasmic region, residues 305 to 662) (Bacillus subtilis, UniProt P39215); conditions: 50 uM protein, 3 mM ethanol, PBS in D2O pH 7.4, 298 K
Chain of McpBC (McpB cytoplasmic region, residues 305 to 662) (P39215 305-662): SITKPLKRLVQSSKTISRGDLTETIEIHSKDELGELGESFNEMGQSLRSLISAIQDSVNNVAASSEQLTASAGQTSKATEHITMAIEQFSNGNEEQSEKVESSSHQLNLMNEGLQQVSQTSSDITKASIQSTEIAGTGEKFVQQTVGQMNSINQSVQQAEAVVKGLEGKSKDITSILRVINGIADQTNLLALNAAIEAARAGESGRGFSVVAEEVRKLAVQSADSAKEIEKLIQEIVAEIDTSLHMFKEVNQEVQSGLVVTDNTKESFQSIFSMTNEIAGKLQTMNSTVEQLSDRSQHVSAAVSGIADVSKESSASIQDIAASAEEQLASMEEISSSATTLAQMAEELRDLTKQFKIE

Chain of HemATN (HemAT sensing domain, residues 1 to 178) (O07621 1-178): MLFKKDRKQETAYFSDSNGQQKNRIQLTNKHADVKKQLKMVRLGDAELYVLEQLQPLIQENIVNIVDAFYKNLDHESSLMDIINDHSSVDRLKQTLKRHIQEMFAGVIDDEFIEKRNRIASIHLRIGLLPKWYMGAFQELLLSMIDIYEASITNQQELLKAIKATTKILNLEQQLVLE

STD/1H area ratio, -CH3 (-CH2 0.85) [1]: 0.27 | saturation fraction (STD/1H area ratio, -CH3) [2]: 0.23
SMILES: CCO [ethanol]
